Test results published in ChEMBL document CHEMBL1201862, “PubChem BioAssay data set” (2004).
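Protocol summary: plate cells (96-well), add compound at 5 concentrations, incubate 48 h, interpolate endpoints linearly. Here, GI50 denotes the concentration required for 50% inhibition of growth.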 Active and inactive are the calls of the source. No stated cut-off is given here; in the data, active = GI50 up to about 1.1 µM and inactive = higher.

Columns and labels:
Assay in all cases: NCI anticancer screen, dose series, 48 h
NCI-H460 = system: NCI-H460
HOP-62 = system: HOP-62
NCI/ADR-RES = system: NCI/ADR-RES
UACC-62 = system: UACC-62
HL-60 = system: HL-60
SK-MEL-2 = system: SK-MEL-2
SW-620 = system: SW-620
DU-145 = system: DU-145
KM12 = system: KM12
RPMI-8226 = system: RPMI-8226
MOLT-4 = system: MOLT-4
Hs-578T = system: Hs-578T
SN12C = system: SN12C
SF-539 = system: SF-539
A498 = system: A498
M14 = system: M14
SNB-19 = system: SNB-19
SNB-75 = system: SNB-75
NCI-H226 = system: NCI-H226
UO-31 = system: UO-31

| SMILES | GI50 (NCI-H460) | GI50 (HOP-62) | GI50 (NCI/ADR-RES) | GI50 (UACC-62) | GI50 (HL-60) | GI50 (SK-MEL-2) | GI50 (SW-620) | GI50 (DU-145) | GI50 (KM12) | GI50 (RPMI-8226) | GI50 (MOLT-4) | GI50 (Hs-578T) | GI50 (SN12C) | GI50 (SF-539) | GI50 (A498) | GI50 (M14) | GI50 (SNB-19) | GI50 (SNB-75) | GI50 (NCI-H226) | GI50 (UO-31) |
| --- | --- | --- | --- | --- | --- | --- | --- | --- | --- | --- | --- | --- | --- | --- | --- | --- | --- | --- | --- | --- |
| CC(C)=c1sc(=C(C)C)c2c1=NC(C)(C)N=2 | 43.7 µM (inactive) | > 100 µM (inactive) | > 100 µM (inactive) | 37.4 µM (inactive) | 57.4 µM (inactive) | 26.7 µM (inactive) | 72.6 µM (inactive) | 58.3 µM (inactive) | 78.9 µM (inactive) | 37.2 µM (inactive) | 42.4 µM (inactive) | 53.6 µM (inactive) | 58.5 µM (inactive) | > 100 µM (inactive) | 87.5 µM (inactive) | 77.4 µM (inactive) | > 100 µM (inactive) |  |  |  |
| Cc1cc(C)nc(NS(=O)(=O)c2ccc(NC(=O)c3ccc4nc5ccccc5c(Nc5ccc(S(=O)(=O)N=C(N)N)cc5)c4c3)cc2)n1 | > 100 µM (inactive) | > 100 µM (inactive) | > 100 µM (inactive) | > 100 µM (inactive) | > 100 µM (inactive) | > 100 µM (inactive) | > 100 µM (inactive) | > 100 µM (inactive) | > 100 µM (inactive) | > 100 µM (inactive) | > 100 µM (inactive) | > 100 µM (inactive) | > 100 µM (inactive) | > 100 µM (inactive) |  | > 100 µM (inactive) | > 100 µM (inactive) | > 100 µM (inactive) | > 100 µM (inactive) | > 100 µM (inactive) |
| CC(=O)Nc1ccc(C(=O)NN2C(=O)CSC2c2ccccc2)cc1 (stereo unspecified) | > 100 µM (inactive) | > 100 µM (inactive) | > 100 µM (inactive) | > 100 µM (inactive) |  | 69.5 µM (inactive) | > 100 µM (inactive) | > 100 µM (inactive) | > 100 µM (inactive) | > 100 µM (inactive) | > 100 µM (inactive) | > 100 µM (inactive) | > 100 µM (inactive) | > 100 µM (inactive) | > 100 µM (inactive) | > 100 µM (inactive) | > 100 µM (inactive) | 90.8 µM (inactive) | > 100 µM (inactive) | > 100 µM (inactive) |
| O=C(NC(=S)Nc1ccc2c(c1)Sc1ccccc1O2)c1ccccc1 | 48 µM (inactive) | 27.4 µM (inactive) | 39.9 µM (inactive) | 22.5 µM (inactive) | 13.5 µM (inactive) | 14.1 µM (inactive) | 32.1 µM (inactive) | 36.2 µM (inactive) | 29.5 µM (inactive) | 51.3 µM (inactive) | 27.8 µM (inactive) | 39.6 µM (inactive) | 50.1 µM (inactive) | 22.6 µM (inactive) |  | 43.2 µM (inactive) | 34 µM (inactive) | 15.7 µM (inactive) | 53.7 µM (inactive) | > 100 µM (inactive) |
| CCOC(=O)C1=C(C)N(c2ccc(Cl)cc2)C2(O)C=CC(O)=C3C(=O)c4ccccc4C(=O)C312 (stereo unspecified) | 5.38 µM (inactive) | 5.2 µM (inactive) | 2.49 µM (inactive) | 3.44 µM (inactive) | 2.37 µM (inactive) | 4.32 µM (inactive) | 4.08 µM (inactive) | 8.09 µM (inactive) | 6.97 µM (inactive) | 1.8 µM (inactive) | 2.43 µM (inactive) | 4.26 µM (inactive) | 4.16 µM (inactive) | 4.16 µM (inactive) | 15.2 µM (inactive) | 2.63 µM (inactive) | 12.9 µM (inactive) |  |  | 3.92 µM (inactive) |
| O1C2C1C1OC1C1OC1C1OC21 (stereo unspecified) |  | > 100 µM (inactive) | > 100 µM (inactive) | > 100 µM (inactive) |  | > 100 µM (inactive) |  | > 100 µM (inactive) | > 100 µM (inactive) |  | > 100 µM (inactive) | > 100 µM (inactive) | > 100 µM (inactive) |  | > 100 µM (inactive) | > 100 µM (inactive) | > 100 µM (inactive) | 46.6 µM (inactive) | > 100 µM (inactive) | > 100 µM (inactive) |
| COC(=O)c1cc2c(cc1O)[C@@H](NC(C)=O)CCc1cc(OC)c(OC)c(OC)c1-2 | 0.0528 µM (active) | 0.0946 µM (active) | 0.114 µM (active) | 0.0692 µM (active) |  | 0.084 µM (active) | 0.108 µM (active) | 0.064 µM (active) | 0.0283 µM (active) | 0.0668 µM (active) | 0.0796 µM (active) | 0.017 µM (active) | 0.127 µM (active) | 0.0294 µM (active) | 0.0568 µM (active) | 0.0454 µM (active) | 0.101 µM (active) | 0.0299 µM (active) | 0.023 µM (active) | 0.445 µM (active) |
